Laboratory results taken from patent publication US6747027B1, “Thiol sulfonamide metalloprotease inhibitors” (Pharmacia Corporation, priority 1996, dated 2004).

Key:
recombinant human MMP-13 = molecular target: T1, recombinant human MMP-13 (Homo sapiens, UniProt P45452); assay: In vitro metalloprotease inhibition, fluorogenic peptide assay (MMP-13); assay type: biochemical
T1 construct: made in house
Description: (§1) Certain of the compounds prepared in the manner described in Examples 1 to 223 were tested for activity by an in vitro assay. Following the procedures of Knight et al., FEBS Lett. 296(3):263 (1992). Briefly, 4-aminophenylmercuric acetate (APMA) or trypsin activated MMPs were incubated with various concentrations of the inhibitor compound at room temperature for 5 minutes (0.02% 2-mercapto-ethanol added to buffer for thiol compounds with 5 minutes or overnight incubation). More specifically, recombinant human MMP-13 and MMP-1 enzymes were prepared in laboratories of the inventors' employer. MMP-13 was expressed in baculovirus as a proenzyme, and purified first over a heparin agarose column and then over a chelating zinc chloride column. The proenzyme was activated by APMA for use in the assay. MMP-1 expressed in transfected HT-1080 was provided by Dr. Howard Welgus of Washington University, St. Louis, Mo. The enzyme was also activated using APMA and was then purified over a hydroxamic acid column.
(§2) The enzyme substrate is a methoxycoumarin-containing polypeptide having the following sequence:
(§3) MCA-ProLeuGlyLeuDpaAlaArgNH^2, wherein MCA is methoxycoumarin and Dpa is 3-(2,4-dinitrophenyl)-L-2,3-diaminopropionyl alanine. This substrate is commercially available from Baychem as product M-1895.
(§4) The buffer used for assays contained 100 mM Tris-HCl, 100 mM NaCl, 10 mM CaCl2 and 0.05 percent polyethyleneglycol(23) lauryl ether at a pH value of 7.5. Assays were carried out at room temperature, and dimethyl sulfoxide (DMSO) at a final concentration of 1 percent was used to dissolve inhibitor compound.
(§5) The assayed inhibitor compound in DMSO/buffer solution was compared to an equal amount of DMSO/buffer with no inhibitor as control using microfluor™ white plates (Dynatech). The inhibitor or control solution was maintained in the plate for 10 minutes and the substrate was added to provide a final concentration of 4 uM.
(§6) In the absence of inhibitor activity, a fluorogenic peptide is cleaved at the gly-leu peptide bond, separating the highly fluorogenic peptide from a 2.4-dinitrophenyl quencher, resulting in an increase of fluorescence intensity (excitation at 328 nm/emmision at 415 nm). Inhibition was measured as a reduction in fluorescent intensity as a function of inhibitor concentration, using a Perkin Elmer L550 plate reader. The IC50 values were calculated from those values. The results are set forth in the Inhibition Table below, reported in terms of IC50 to three significant figures.

recombinant human MMP-1 = molecular target: T2, recombinant human MMP-1 (Homo sapiens, UniProt P03956); assay: In vitro metalloprotease inhibition, fluorogenic peptide assay (MMP-1); assay type: biochemical; details: recombinant human MMP-1, APMA activated; fluorogenic MCA peptide substrate 4 uM; pH 7.5, room temperature
T2 construct: made in house; host or cells: transfected HT-1080 cells (provided by Dr. Howard Welgus, Washington University)
T2 sequence (P03956 100-469): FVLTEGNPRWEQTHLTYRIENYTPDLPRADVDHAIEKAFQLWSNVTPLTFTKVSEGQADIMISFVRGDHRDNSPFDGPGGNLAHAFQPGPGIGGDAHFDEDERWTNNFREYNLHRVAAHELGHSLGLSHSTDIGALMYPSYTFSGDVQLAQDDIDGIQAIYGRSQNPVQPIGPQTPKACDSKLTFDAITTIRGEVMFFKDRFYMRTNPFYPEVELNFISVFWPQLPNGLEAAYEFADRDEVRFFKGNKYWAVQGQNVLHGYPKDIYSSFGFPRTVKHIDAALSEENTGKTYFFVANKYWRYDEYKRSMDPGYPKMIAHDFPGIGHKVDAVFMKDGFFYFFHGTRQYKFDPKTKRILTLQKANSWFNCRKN
Description: as §1, §2, §3, §4, §5, §6

[1] = recombinant human MMP-13, APMA activated, fluorogenic MCA peptide substrate 4 uM, pH 7.5, room temperature

| Compound | IC50 (recombinant human MMP-13; [1]) [nM] | IC50 (recombinant human MMP-1) [nM] | IC50 (recombinant human MMP-13; in vitro, recombinant human MMP-13) [nM] |
| --- | --- | --- | --- |
| CCCCOc1ccc(S(=O)(=O)N[C@@H](CS)C(=O)NC(C)C)cc1 [Example 166] | 880 | > 10000 | – |
| COc1ccc(S(=O)(=O)N(C)CCc2ccccc2S)cc1 [Example 130] | 3300 | > 10000 | – |
| CCCCOc1ccc(S(=O)(=O)N(Cc2ccccc2)[C@H](C)CS)cc1 [Example 17C] | 260 | > 10000 | – |
| CCCCOc1ccc(S(=O)(=O)N[C@@H](CS)C(=O)N[C@@H](Cc2ccccc2)C(=O)NC)cc1 [Example 180] | 700 | > 10000 | – |
| CC(=O)Nc1ccc(S(=O)(=O)N[C@@H](CS)C(N)=O)cc1 [Example 199] | 350 | > 10000 | – |
| N-(2-mercapto-1R-methylethyl)-4-methylbenzenesulfonamide [Example 68] | 1720 | > 10000 | – |
| CC(=O)Nc1ccc(S(=O)(=O)N[C@H](C)CS)cc1 [Example 84, N-(2-mercapto-1R-methylethyl)-4-N-acetylsulfanilamide] | > 10000 | > 10000 | – |
| C[C@H](CS)NS(=O)(=O)c1ccc(Br)cc1 [Example 65, N-(2-mercapto-1R-methylethyl)-4-bromobenzenesulfonamide] | 445 | 1000 | – |
| CCC(C)(C)c1ccc(S(=O)(=O)N[C@H](C)CS)cc1 [Example 193] | > 10000 | > 10000 | – |
| Cc1ccccc1-c1ccc(S(=O)(=O)N(C)[C@H](C)CS)cc1 [Example 122] | 4250 | > 10000 | – |
| C[C@H](CO)N(C)S(=O)(=O)c1ccc(-c2ccccn2)s1 [Example 42D, N-(2-Hydroxy-1R-methylethyl)-N-methyl-2-(pyrid-2-yl)thiophene-5-sulfonamide] | 1800 | > 10000 | – |
| C[C@H](CS)NS(=O)(=O)c1ccccc1 [Example 82, N-(2-mercapto-1R-methylethyl)-benzenesulfonamide] | 1200 | > 10000 | – |
| C[C@H](CS)N(Cc1ccccc1)S(=O)(=O)CCCSc1ccccc1 [Example 51, N-(2-Mercapto-1R-methylethyl)-N-benzyl(3-thiophenylpropyl)sulphonamide] | 340 | > 10000 | – |
| C[C@H](CS)N(C)S(=O)(=O)c1ccc(-c2cccc(C(F)(F)F)c2)cc1 [Example 125] | 770 | > 10000 | – |
| CCCCOc1ccc(S(=O)(=O)NC(CO)CS)cc1 (centres unmarked) [Example 110] | 1600 | > 10000 | – |
| COc1ccc(S(=O)(=O)N(C)Cc2ccccc2S)cc1 [Example 44, N-[(2-Mercaptophenyl)methyl]-N-methyl-4-methoxybenzenesulfonamide] | 400 | > 10000 | – |
| COc1ccc(S(=O)(=O)N2CCC(S)C2)cc1 (centres unmarked) [Example 26, 1-[(4-Methoxyphenyl)sulfonyl]-3-mercaptopyrrolidine] | 250 | > 10000 | – |
| CCCCOc1ccc(S(=O)(=O)N(CCN2CCCCC2)[C@H](C)CS)cc1 [Example 46, N-(2-Mercapto-1R-methylethyl)-N-[2-(1-piperidino)ethyl]-4-(n-butoxy)benzenesulfonamide] | 4 | 3500 | – |
| N-(2-Mercapto-1R-methylethyl)-N-[2-(4-morpholino)ethyl]-4-(thiophenyl)benzenesulfonamide Hydrochloride [Example 91D] | 0.7 | > 10000 | – |
| COc1ccc(S(=O)(=O)N(Cc2ccccc2)[C@@H](CS)C(C)C)cc1 [Example 31D, N-[(1R-Mercaptomethyl)-2-methylpropyl]-4-methoxy-N-(phenylmethyl)benzenesulfonamide] | 600 | 2500 | – |
| COc1ccc(S(=O)(=O)N(Cc2ccccc2)C(CS)Cc2ccccc2)cc1 (centres unmarked) [Example 57, N-(2-Mercapto-1R,S-phenylmethyl)-N-phenylmethyl-4-methoxybenzenesulfonamide] | 5000 | > 10000 | – |
| COc1ccc(S(=O)(=O)N2CCCC2CS)cc1 (centres unmarked) [Example 28, 1-[(4-Methoxyphenyl)sulfonyl]pyrrolidine-2-methanethiol] | 800 | > 10000 | – |

Second part, the compound after the results:

| IC50 (recombinant human MMP-13; [1]) [nM] | IC50 (recombinant human MMP-1) [nM] | IC50 (recombinant human MMP-13; in vitro, recombinant human MMP-13) [nM] | Compound |
| --- | --- | --- | --- |
| 50 | > 10000 | – | CCCCOc1ccc(S(=O)(=O)N[C@@H](CS)C(=O)NCc2ccccc2)cc1 [Example 209] |
| 30 | > 10000 | – | CCCCOc1ccc(S(=O)(=O)N[C@@H](CS)C(=O)NC)cc1 [Example 171] |
| 2.7 | 4000 | – | CCCCOc1ccc(S(=O)(=O)N(CCN2CCOCC2)[C@H](C)CS)cc1 [Example 107] |
| 67.5 | 2000 | – | COc1ccc(S(=O)(=O)N(Cc2ccccc2)[C@H](C)CS)cc1 (racemic) [Example 56, N-(2-Mercapto-1R,S-methylethyl)-N-phenylmethyl-4-methoxybenzenesulfonamide benzenesulfonamide] |
| 2.5 | 2900 | – | CCCCOc1ccc(S(=O)(=O)N(CCN2CCOCC2)[C@@H](CS)C(=O)NC)cc1 [Example 176] |
| 13 | 1000 | – | COC(=O)[C@H](CSSC[C@@H](C(=O)OC)N(C)S(=O)(=O)c1ccc(OC)cc1)N(C)S(=O)(=O)c1ccc(OC)cc1 [Example 59] |
| 0.71 | 313 | – | C[C@H](CS)N(C)S(=O)(=O)c1ccc(-c2ccccc2)cc1 [Example 55, N-(2-Mercapto-1R-methylethyl)-N-methyl-4-(phenyl)benzenesulfonamide] |
| < 0.5 | 2100 | – | COc1ccc(-c2ccc(S(=O)(=O)N(C)[C@H](C)CS)cc2)cc1 [Example 124] |
| 17 | > 10000 | – | C[C@H](CS)N(CC(=O)O)S(=O)(=O)c1ccc(Sc2ccccc2)cc1 [Example 103] |
| 11 | > 10000 | – | CCCCCc1ccc(S(=O)(=O)N(C)[C@H](C)CS)cc1 [Example 53, N-(2-Mercapto-1R-methylethyl)-N-methyl-4-(n-pentyl)benzenesulfonamide] |
| 65 | 4200 | – | CCCCCN(CCS)S(=O)(=O)c1ccc(OC)cc1 [Example 8, N-(2-Mercaptoethyl)-N-pentyl-4-methoxybenzenesulfonamide] |
| 23.5 | 2000 | – | CCCCOc1ccc(S(=O)(=O)N[C@@H](CS)C(=O)NCC(=O)O)cc1 [Example 179] |
| 31.3 | 900 | – | CCCCN([C@H](C)CS)S(=O)(=O)c1ccc(OC)cc1 [Example 99] |
| 5 | 1500 | – | CCCOc1ccc(S(=O)(=O)N(C)[C@H](C)CS)cc1 [Example 37C, N-(2-Mercapto-1R-methylethyl)-N-methyl-4-(n-propyloxy)benzenesulfonamide] |
| 3.5 | > 100 | – | CC(C)Oc1ccc(-c2ccc(S(=O)(=O)N(CCN3CCOCC3)[C@@H](CS)C(N)=O)cc2)cc1 [Example 126] |
| 150 | 4000 | – | COc1ccc(S(=O)(=O)N(Cc2ccsc2)[C@H](C)CS)cc1 [Example 112] |
| 1.4 | 7000 | – | NC(=O)[C@H](CS)N(CCN1CCOCC1)S(=O)(=O)c1ccc(NC(=O)c2ccc(Cl)cc2)cc1 [Example 220, N-(4-(4′-chlorobenzoyl)amino)phenylsulfonyl-N-(4-(morpholinoethyl))-L-cysteine amide] |
| 38.5 | 1300 | – | COc1ccc(S(=O)(=O)N(Cc2ccccc2)[C@H](C)CS)cc1 [Example 12C, N-(2-Mercapto-1R-methylethyl)-N-(phenylmethyl)-4-methoxybenzenesulfonamide] |
| 1.8 | > 10000 | 2 | C[C@H](CS)N(C)S(=O)(=O)c1ccc(Sc2ccccc2)cc1 [Example 41C, N-(2-Mercapto-1R-methylethyl)-N-methyl-4-(thiophenyl)benzenesulfonamide] |
